In patent US10758534B2 (Vertex Pharmaceuticals Incorporated, priority 2014, dated 2020):
One block for each molecule: values may come before it.

Biological target: T1, F508del (Homo sapiens, UniProt P13569, DEL508-508)
T1 construct: expressed in transfected cells
Experiment: Protocol 2: FRET membrane potential optical assay (VIPR), identification of correction compounds
Assay type: cell-based
Conditions: F508del CFTR modulator activity; compounds of Table 1; read-out: EC30
Summary of the method: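 FRET read-out (CC2-DMPE donor, DiSBAC2(3) voltage-sensitive acceptor) of membrane depolarization on VIPR II. Corrector candidates incubated 16 hrs at 37° C. with NIH3T3 cells expressing F508del; temperature correction at 27° C. as positive control; stimulation by 10 μM forskolin, 20 μM genistein, chloride-free gluconate bath.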

T1 sequence (P13569 with tags, fused parts or gaps DEL508-508): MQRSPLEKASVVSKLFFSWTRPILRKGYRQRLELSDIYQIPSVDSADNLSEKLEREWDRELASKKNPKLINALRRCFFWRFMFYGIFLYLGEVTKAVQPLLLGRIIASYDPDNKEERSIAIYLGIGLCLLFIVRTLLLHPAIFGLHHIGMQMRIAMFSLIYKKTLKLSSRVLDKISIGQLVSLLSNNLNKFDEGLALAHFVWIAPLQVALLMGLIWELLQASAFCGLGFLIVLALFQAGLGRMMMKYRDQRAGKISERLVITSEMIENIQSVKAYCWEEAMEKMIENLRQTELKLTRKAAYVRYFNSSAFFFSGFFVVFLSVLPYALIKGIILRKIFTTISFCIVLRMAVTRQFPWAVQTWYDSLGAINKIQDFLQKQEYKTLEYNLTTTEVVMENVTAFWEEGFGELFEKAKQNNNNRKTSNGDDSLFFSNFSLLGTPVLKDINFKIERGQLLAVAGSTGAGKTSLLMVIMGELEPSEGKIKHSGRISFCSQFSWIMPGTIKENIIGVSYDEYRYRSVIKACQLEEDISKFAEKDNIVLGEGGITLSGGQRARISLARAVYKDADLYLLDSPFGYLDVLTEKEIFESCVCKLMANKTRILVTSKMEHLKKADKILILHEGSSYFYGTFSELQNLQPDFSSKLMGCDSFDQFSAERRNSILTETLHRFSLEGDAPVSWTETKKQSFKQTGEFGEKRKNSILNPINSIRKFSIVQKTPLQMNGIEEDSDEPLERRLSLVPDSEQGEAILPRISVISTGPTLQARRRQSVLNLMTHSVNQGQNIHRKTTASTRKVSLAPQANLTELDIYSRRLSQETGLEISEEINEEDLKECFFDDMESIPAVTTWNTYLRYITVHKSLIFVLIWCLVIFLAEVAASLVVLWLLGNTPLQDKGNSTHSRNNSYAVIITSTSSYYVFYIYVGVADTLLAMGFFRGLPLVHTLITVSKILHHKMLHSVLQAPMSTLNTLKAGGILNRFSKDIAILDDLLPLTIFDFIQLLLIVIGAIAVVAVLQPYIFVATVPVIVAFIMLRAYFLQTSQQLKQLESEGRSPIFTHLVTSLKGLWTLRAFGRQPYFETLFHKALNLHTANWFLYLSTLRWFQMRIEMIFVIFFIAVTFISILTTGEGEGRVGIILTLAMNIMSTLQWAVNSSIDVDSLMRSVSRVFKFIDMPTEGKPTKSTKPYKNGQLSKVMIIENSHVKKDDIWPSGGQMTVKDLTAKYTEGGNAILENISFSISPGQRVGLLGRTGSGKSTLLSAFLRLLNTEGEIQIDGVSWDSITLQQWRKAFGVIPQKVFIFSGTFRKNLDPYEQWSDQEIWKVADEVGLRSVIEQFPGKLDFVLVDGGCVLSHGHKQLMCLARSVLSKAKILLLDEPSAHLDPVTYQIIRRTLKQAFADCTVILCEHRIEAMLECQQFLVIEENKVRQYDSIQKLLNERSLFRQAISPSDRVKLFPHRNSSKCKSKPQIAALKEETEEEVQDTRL

Structure (SMILES): CC1CN(c2nc(OC(C)C)c(F)cc2C(=O)NS(=O)(=O)c2cccc(N)n2)C(C)(C)C1 (centres unmarked) [Compound 2230, N-[(6-amino-2-pyridyl)sulfonyl]-5-fluoro-6-isopropoxy-2-(2,2,4-trimethylpyrrolidin-1-yl)pyridine-3-carboxamide]
EC30: < 3000 nM

Structure (SMILES): CC(C)Cn1cc(-c2ccc(C(=O)NS(=O)(=O)c3cccnc3N)c(N3C[C@@H](C)CC3(C)C)n2)cn1 [Compound 2231, N-[(2-amino-3-pyridyl)sulfonyl]-6-(1-isobutylpyrazol-4-yl)-2-[(4S)-2,2,4-trimethylpyrrolidin-1-yl]pyridine-3-carboxamide]
EC30: < 3000 nM

Structure (SMILES): Cc1cc(O)cc(-c2ccc(C(=O)NS(=O)(=O)c3cccc(N)n3)c(N3C[C@@H](C)CC3(C)C)n2)c1 [Compound 2232, N-[(6-amino-2-pyridyl)sulfonyl]-6-(3-hydroxy-5-methyl-phenyl)-2-[(4S)-2,2,4-trimethylpyrrolidin-1-yl]pyridine-3-carboxamide]
EC30: 3000 to 10000 nM

Structure (SMILES): COc1cccc(Oc2cccc(S(=O)(=O)NC(=O)c3cccnc3N3CC(C)CC3(C)C)n2)c1OC (centres unmarked) [Compound 2233, N—[[6-(2,3-dimethoxyphenoxy)-2-pyridyl]sulfonyl]-2-(2,2,4-trimethylpyrrolidin-1-yl)pyridine-3-carboxamide]
EC30: < 3000 nM

Structure (SMILES): C[C@@H]1CN(c2nc(-c3ccc(OC(F)(F)F)cc3)ccc2C(=O)NS(=O)(=O)c2ccc[nH]c2=O)C(C)(C)C1 [Compound 2234, N-[(2-oxo-1H-pyridin-3-yl)sulfonyl]-6-[4-(trifluoromethoxy)phenyl]-2-[(4S)-2,2,4-trimethylpyrrolidin-1-yl]pyridine-3-carboxamide]
EC30: < 3000 nM

Structure (SMILES): CCOc1cccc(-c2ccc(C(=O)NS(=O)(=O)c3ccc[nH]c3=O)c(N3C[C@@H](C)CC3(C)C)n2)c1 [Compound 2235, 6-(3-ethoxyphenyl)-N-[(2-oxo-1H-pyridin-3-yl)sulfonyl]-2-[(4S)-2,2,4-trimethylpyrrolidin-1-yl]pyridine-3-carboxamide]
EC30: < 3000 nM

Structure (SMILES): C[C@@H]1CN(c2nc(-c3cc(F)cc(F)c3)ccc2C(=O)NS(=O)(=O)c2cccc(N)n2)C(C)(C)C1 [Compound 2236, N-[(6-amino-2-pyridyl)sulfonyl]-6-(3,5-difluorophenyl)-2-[(4S)-2,2,4-trimethylpyrrolidin-1-yl]pyridine-3-carboxamide]
EC30: < 3000 nM

Structure (SMILES): CC(C)COc1cc(F)cc(-c2ccc(C(=O)NS(=O)(=O)N3CC4CCC(C3)N4)c(N3C[C@@H](C)CC3(C)C)n2)c1 [Compound 2237, N-(3,8-diazabicyclo[3.2.1]octan-3-ylsulfonyl)-6-(3-fluoro-5-isobutoxy-phenyl)-2-[(4S)-2,2,4-trimethylpyrrolidin-1-yl]pyridine-3-carboxamide]
EC30: < 3000 nM

Structure (SMILES): Cc1cc(OCC(C)C)nn1-c1ccc(C(=O)NS(=O)(=O)c2cccnc2N)c(N2C[C@@H](C)CC2(C)C)n1 [Compound 2238, N-[(2-amino-3-pyridyl)sulfonyl]-6-(3-isobutoxy-5-methyl-pyrazol-1-yl)-2-[(4S)-2,2,4-trimethylpyrrolidin-1-yl]pyridine-3-carboxamide]
EC30: < 3000 nM

Structure (SMILES): COc1ccc(Oc2cccc(S(=O)(=O)NC(=O)c3cccnc3N3CC(C)CC3(C)C)n2)cc1 (centres unmarked) [Compound 2239, N—[[6-(4-methoxyphenoxy)-2-pyridyl]sulfonyl]-2-(2,2,4-trimethylpyrrolidin-1-yl)pyridine-3-carboxamide]
EC30: < 3000 nM

Structure (SMILES): COc1cccc(-c2ccc(C(=O)NS(=O)(=O)N3CC[C@H](N)C3)c(N3C[C@@H](C)CC3(C)C)n2)c1 [Compound 2240, N-[(3S)-3-aminopyrrolidin-1-yl]sulfonyl-6-(3-methoxyphenyl)-2-[(4S)-2,2,4-trimethylpyrrolidin-1-yl]pyridine-3-carboxamide]
EC30: 3000 to 10000 nM

Structure (SMILES): CC1CN(c2ncccc2C(=O)NS(=O)(=O)c2cccc(OC3CCCCCC3)n2)C(C)(C)C1 (centres unmarked) [Compound 2252, N—[[6-(cycloheptoxy)-2-pyridyl]sulfonyl]-2-(2,2,4-trimethylpyrrolidin-1-yl)pyridine-3-carboxamide]
EC30: < 3000 nM

Structure (SMILES): CC(C)COc1cc(F)cc(-c2ccc(C(=O)N(C)S(=O)(=O)c3cccc(N)n3)c(N3C[C@@H](C)CC3(C)C)n2)c1 [Compound 2258, N-[(6-amino-2-pyridyl)sulfonyl]-6-(3-fluoro-5-isobutoxy-phenyl)-N-methyl-2-[(4S)-2,2,4-trimethylpyrrolidin-1-yl]pyridine-3-carboxamide]
EC30: < 3000 nM

Second part, the molecule after the results:

EC30: < 3000 nM
Structure (SMILES): CCOc1cc(C)cc(-c2ccc(C(=O)NS(=O)(=O)c3cccnc3N)c(N3C[C@@H](C)CC3(C)C)n2)c1 [Compound 2241, N-[(2-amino-3-pyridyl)sulfonyl]-6-(3-ethoxy-5-methyl-phenyl)-2-[(4S)-2,2,4-trimethylpyrrolidin-1-yl]pyridine-3-carboxamide]

EC30: < 3000 nM
Structure (SMILES): CC(C)(C)c1ccc(C(=O)NS(=O)(=O)c2cccc(N)n2)c(N2CCC(CC3CC3)C2(C)C)n1 (centres unmarked) [Compound 2242, N-[(6-amino-2-pyridyl)sulfonyl]-6-tert-butyl-2-[3-(cyclopropylmethyl)-2,2-dimethyl-pyrrolidin-1-yl]pyridine-3-carboxamide]

EC30: < 3000 nM
Structure (SMILES): C[C@@H]1CN(c2nc(C3=CCCN(C(=O)Cc4ccccc4)C3)ccc2C(=O)NS(=O)(=O)c2cccc(NC(=O)Cc3ccccc3)n2)C(C)(C)C1 [Compound 2243, N—[[6-[(2-phenylacetyl)amino]-2-pyridyl]sulfonyl]-6-[1-(2-phenylacetyl)-3,6-dihydro-2H-pyridin-5-yl]-2-[(4S)-2,2,4-trimethylpyrrolidin-1-yl]pyridine-3-carboxamide]

EC30: < 3000 nM
Structure (SMILES): COc1ccc(-c2ccc(C(=O)NS(=O)(=O)c3cccnc3N)c(N3C[C@@H](C)CC3(C)C)n2)cn1 [Compound 2244, N-[(2-amino-3-pyridyl)sulfonyl]-6-(6-methoxy-3-pyridyl)-2-[(4S)-2,2,4-trimethylpyrrolidin-1-yl]pyridine-3-carboxamide]

EC30: < 3000 nM
Structure (SMILES): C[C@@H]1CN(c2nc(-c3cccc(OC(F)(F)F)c3)ccc2C(=O)NS(=O)(=O)c2cccnc2N)C(C)(C)C1 [Compound 2245, N-[(2-amino-3-pyridyl)sulfonyl]-6-[13-(trifluoromethoxy)phenyl]-2-[(4S)-2,2,4-trimethylpyrrolidin-1-yl]pyridine-3-carboxamide]

EC30: < 3000 nM
Structure (SMILES): CC(C)Cc1ccc(C(=O)NS(=O)(=O)c2ccccc2)c(N2C[C@@H](C)CC2(C)C)n1 [Compound 2246, N-(benzenesulfonyl)-6-isobutyl-2-[(4S)-2,2,4-trimethylpyrrolidin-1-yl]pyridine-3-carboxamide]

EC30: 3000 to 10000 nM
Structure (SMILES): COc1cc(CO)cc(-c2ccc(C(=O)NS(=O)(=O)c3ccc[nH]c3=O)c(N3C[C@@H](C)CC3(C)C)n2)c1 [Compound 2247, 6-[3-(hydroxymethyl)-5-methoxy-phenyl]-N-[(2-oxo-1H-pyridin-3-yl)sulfonyl]-2-[(4S)-2,2,4-trimethylpyrrolidin-1-yl]pyridine-3-carboxamide]

EC30: < 3000 nM
Structure (SMILES): CCOc1nn(-c2ccc(C(=O)NS(=O)(=O)c3cccnc3N)c(N3C[C@@H](C)CC3(C)C)n2)cc1C [Compound 2248, N-[(2-amino-3-pyridyl)sulfonyl]-6-(3-ethoxy-4-methyl-pyrazol-1-yl)-2-[(4S)-2,2,4-trimethylpyrrolidin-1-yl]pyridine-3-carboxamide]

EC30: < 3000 nM
Structure (SMILES): CC1CN(c2ncccc2C(=O)NS(=O)(=O)c2cccc(OCc3cccc4c3OCO4)n2)C(C)(C)C1 (centres unmarked) [Compound 2249, N—[[6-(1,3-benzodioxol-4-ylmethoxy)-2-pyridyl]sulfonyl]-2-(2,2,4-trimethylpyrrolidin-1-yl)pyridine-3-carboxamide]

EC30: < 3000 nM
Structure (SMILES): CC1CN(c2ncccc2C(=O)NS(=O)(=O)c2cccc(NC3CCCCC3)n2)C(C)(C)C1 (centres unmarked) [Compound 2250, N—[[6-(cyclohexylamino)-2-pyridyl]sulfonyl]-2-(2,2,4-trimethylpyrrolidin-1-yl)pyridine-3-carboxamide]

EC30: < 3000 nM
Structure (SMILES): CC1CN(c2ncccc2C(=O)NS(=O)(=O)c2cccc(N(C)CC(=O)OC(C)(C)C)n2)C(C)(C)C1 (centres unmarked) [Compound 2251, tert-butyl 2-[methyl-[6-[[2-(2,2,4-trimethylpyrrolidin-1-yl)pyridine-3-carbonyl]sulfamoyl]-2-pyridyl]amino]acetate]

EC30: 3000 to 10000 nM
Structure (SMILES): CCOC(=O)N1CCC(Nc2cccc(S(=O)(=O)NC(=O)c3cccnc3N3CC(C)CC3(C)C)n2)CC1 (centres unmarked) [Compound 2253, ethyl 4-[[6-[[2-(2,2,4-trimethylpyrrolidin-1-yl)pyridine-3-carbonyl]sulfamoyl]-2-pyridyl]amino]piperidine-1-carboxylate]

EC30: 3000 to 10000 nM
Structure (SMILES): CC1CN(c2ncccc2C(=O)NS(=O)(=O)c2cccc(N3CCN(c4cnccn4)CC3)n2)C(C)(C)C1 (centres unmarked) [Compound 2254, N—[[6-(4-pyrazin-2-ylpiperazin-1-yl)-2-pyridyl]sulfonyl]-2-(2,2,4-trimethylpyrrolidin-1-yl)pyridine-3-carboxamide]

EC30: < 3000 nM
Structure (SMILES): CC1CN(c2ncccc2C(=O)NS(=O)(=O)c2cccc(N3CCc4ccccc43)n2)C(C)(C)C1 (centres unmarked) [Compound 2255, N-[(6-indolin-1-yl-2-pyridyl)sulfonyl]-2-(2,2,4-trimethylpyrrolidin-1-yl)pyridine-3-carboxamide]

EC30: < 3000 nM
Structure (SMILES): CCOc1cc(C)cc(-c2ccc(C(=O)NS(=O)(=O)c3cccnc3N)c(N3C[C@@H](C)CC3(C)C)n2)n1 [Compound 2256, N-[(2-amino-3-pyridyl)sulfonyl]-6-(6-ethoxy-4-methyl-2-pyridyl)-2-[(4S)-2,2,4-trimethylpyrrolidin-1-yl]pyridine-3-carboxamide]

EC30: < 3000 nM
Structure (SMILES): C[C@@H]1CN(c2nc(-c3ccccc3O)ccc2C(=O)NS(=O)(=O)c2cccnc2N)C(C)(C)C1 [Compound 2257, N-[(2-amino-3-pyridyl)sulfonyl]-6-(2-hydroxyphenyl)-2-[(4S)-2,2,4-trimethylpyrrolidin-1-yl]pyridine-3-carboxamide]
